Columns and labels:
[1] = tested on: skin sympathetic nerves of IMQ-induced mice; test: Local skin sympathectomy by intradermal 6-OHDA before IMQ treatment; assay type: in vivo, mouse
Procedure: In an embodiment of the disclosure, in order to observe the effect of local sympathectomy on psoriasis mice, mice are injected with 6-OHDA intradermally before IMQ treatment (FIG. 25).

IMQ-induced mice = settings: intraperitoneal injection; cited from earlier work
SH-SY5Y cells = test: 6-OHDA induced SH-SY5Y cell injury (qPCR, western blot); assay type: cell-based, human
From the text: In an embodiment of the disclosure, to further study whether CAMK2γ directly affects the expression of TH in sympathetic nerves, RNA interference (RNAi) method is used to knock down CAMK2G in human neuroblastoma cell (SH-SY5Y). SH-SY5Y is a poorly differentiated tumor cell with high similarity in morphology, physiology and biochemical function to dopaminergic neurons in real-time in vivo, and can constitutively express TH.

[2] = tested on: PMA-activated HL-60 cells; test: NETs protein release in PMA-activated HL-60 cells; assay type: cell-based
From the text: The existing literature discloses that although T cells producing IL-17 have long been the mainstream of psoriasis immunology research, neutrophils, as the largest number of cells in the innate immune system, have attracted much attention in the occurrence and development of psoriasis. Activated neutrophils produce enhanced respiratory burst, accompanied by the production of reactive oxygen species (ROS), ultimately leading to the development of NETosis. NETosis is a form of neutrophil death different from apoptosis and necrosis. NETosis is accompanied by the formation of NETs. NETs release proteases such as myeloperoxidase (MPO), neutrophil elastase (NE) and peptidyl arginine deiminase 4 (PAD4), which are involved in the hydrolysis and activation of inflammatory mediators and the formation of NETs of psoriasis autoantigens. HL60 is a bone marrow cell line with the potential to differentiate into neutrophils stimulated by dimethyl sulfoxide (DMSO). CAMK2γ is the member of CAMK family with the highest expression level and activity in HL-60 cells.
In the embodiment of the disclosure, in order to study whether CAMK2γ is involved in the formation of NETs in activated neutrophils, two kinds of CaMKII inhibitors, CaMKII-IN1 and KN93, are used.

Jurkat T cells = test: MAPK (p38, ERK, JNK) activation in PMA/ionomycin activated Jurkat T cells; assay type: cell-based, human; settings: Jurkat T cells activated by PMA/ionomycin for 2 hours, treatment for 4 hours
From the text: This is consistent with the existing literature that p38 phosphorylation promotes the proliferation of Th17 cells in autoimmune arthritis. P38 MAPK signaling pathway plays a role in the activation and differentiation of T cells in the peripheral blood immune system.

Jurkat cells = test: Proinflammatory cytokine production in PMA/ionomycin co-stimulated Jurkat cells; assay type: cell-based, human; settings: co-stimulation with PMA and ionomycin
From the text: In the embodiments of the disclosure, “Phorbol 12-myristate 13-acetate (PMA)” and “ionomycin (Ion)” are used to activate Jurkat cells, and only activated Jurkat cells can highly express inflammatory factors.
In the embodiment of the disclosure, in order to in order to study how ADRB2 regulates the inflammatory response of γδ T cells, Jurkat cells (a kind of immortal human T lymphocytes) are stimulated with ADRB2 agonist SAL and antagonist ICI 118551 respectively.

[3] = tested on: IMQ-induced psoriasis mice; test: IMQ-induced psoriasis mouse model with subcutaneous injection of NE, SAL or ICI; assay type: in vivo; settings: for activation of p38 in IMQ-induced skin: SAL or ICI treatment, mouse skin; for IMQ-induced psoriasis-like phenotype (dorsal skin thickness, erythema, scaling) / proportion of IL-17A+ γδ T cells (γδ T-17 cells) in mouse skin: subcutaneous injection; for IMQ-induced psoriasis-like phenotype (dorsal skin thickness, erythema, scaling): IMQ-induced mice, vs control group; for proportion of IL-17A+ γδ T cells (γδ T-17 cells) in mouse skin: IMQ-induced mouse skin, flow cytometry
Procedure: In the embodiment of the disclosure, establishment steps of IMQ-induced Camk2g^-/- psoriasis mouse model include steps as follows. 7-week-old wild type mice (WT) (n = 5) or Camk2g^-/- mice (n = 5) are taken to shave back hair, and the exposed skin area is 2 centimeters (cm) × 2 cm, […] (mg) of IMQ cream or control agent Vaseline (VAS) are evenly applied to the exposed skin of mice for 4 consecutive days, psoriasis area severity index (PASI) score is performed every day, and the mice are sacrificed on the 5th day to take the skin, spleen and blood for testing.
In the embodiment of the disclosure, the skin tissue is fixed with 10% formalin, embedded in paraffin, cut into 4 micrometers (µm) sections for hematoxylin and eosin (H&E) staining.
In the embodiment of the disclosure, the inflammation scoring method of the mouse model is an objective scoring system developed on the basis of clinical PASI score. Scores of erythema, scaling and thickening ranged from 0 to 4:0: none; 1: mild, 2: moderate, 3: obvious, and 4: very significant. The degree of erythema is scored using a scoring scaling based on erythema intensity. A cumulative score (i.e., erythema + scaling + thickening) can be used as an indicator of the severity of inflammation (the cumulative score is in a range of 0-12).
In the embodiment of the disclosure, separation steps of skin immunocytes include steps as follows. the skin is fully chopped and then digested in digestive enzymes at 37° C. and 225 revolutions per minute (rpm) for 1.5 hours to thereby obtain an initial digestion solution. The digestive enzymes are formulated as follows: 1.2 grams (g) bovine serum albumin (BSA) (Biofoxx, 4240GR100), 0.12 g type I collagenase (Sigma, C0130-5G), 0.06 g type IV collagenase (Worthington, LS004189) and 0.06 g hyaluronidase (Sigma, H3506) -5G) are dissolved in 30 milliliters (mL) dulbecco’s modified eagle medium (DMEM) (HyClone, SH30022.01). 150 microliters (µL) of 1 microgram per milliliter (mg/mL) deoxyribonuclease (DNase) (Yuanye, S10073) is added in the initial digestion solution and the digestion is continued for 30 minutes to obtain a first cell suspension. After the digestion, the first cell suspension is filtered through a 70-µm filter. The filtered first cell suspension is centrifuged at 4° C. and 2000 rpm for 8 minutes, and first cell particles are collected after removing a first supernatant. The first cell particles are suspended in 6 mL of 40% lymphocyte isolation solution (5.4 mL Percoll (GE Healthcare, 17-0891-09) +520 µL Hank’s Solution (Beyotime, C0219) +44 µL 2×Hepes Buffer (Solarbio, H1080-100) +[…] phosphate-buffered saline (PBS)) of a centrifuge tube. Then, 6 mL of 80% lymphocyte isolation solution (5.4 mL Percoll+520 µL Hank’s Solution+44 µL 2×Hepes Buffer+1.491 mL PBS) is slowly added to the tube wall to obtain a first mixed solution, and the first mixed solution is clearly separated into two layers. The first mixed solution is centrifuged at 4° C. and 2000 rpm for 20 minutes, and the centrifugal lifting force is kept to a minimum. The liquid in the centrifuge tube after centrifugation can be divided into four layers. From top to bottom of the centrifuge tube, there are 40% lymphocyte isolation solution, lymphocytes, 80% lymphocyte isolation solution and cell fragments. Lymphocytes are carefully transferred into a new centrifuge tube and thoroughly washed with 10 mL PBS to obtain a second mixed solution. The second mixed solution is centrifuged at 4° C. and 2000 rpm for 8 minutes to obtain a second cell suspension, and second cell particles are collected after removing a second supernatant. Then, 1 µL of each cell membrane surface antibody is added to 50 µL of PBS, mixed with the second cell particles, and incubated at room temperature for 30 minutes in the dark. […]

[4] = tested on: IMQ-induced psoriasis mice; test: as above; assay type: in vivo; settings: after injection of NE
[5] = tested on: γδ T cell deficient-mice (Tcrd^-/-); test: SAL subcutaneous injection in γδ T cell deficient-mice (Tcrd-/-); assay type: in vivo, mouse
From the text: SAL has no effect on the ability of αβ T cells to produce IL-17 (FIG. 50). Combined with the previous results, NE in the skin mainly derives from the skin sympathetic nerves and mediates the release of IL-17 from γδ T cells instead of αβ T cells through the NE-ADRB2 signaling pathway.

[6] = intradermal 6-OHDA, sympathetic denervated skin

## NCCc1cc(O)c(O)cc1O [6-OHDA, 6-hydroxydopamine]
[1]; intradermal 6-OHDA before IMQ, immunofluorescence and western blot
  TH and pTH in skin: significant reduction of TH and pTH
[1]; intradermal 6-OHDA, skin sympathetic denervation
  IMQ-induced psoriasis-like phenotype: reduces IMQ-induced psoriasis-like phenotype in mice
[1]; [6]
  IL-17A+ γδ T cells in skin: IL-17A+ γδ T cells are reduced
  NE in skin: reduction of NE
IMQ-induced mice
  IMQ-induced ear swelling: can reduce IMQ-induced ear swelling
  production of IL-17: does not affect the production of IL-17
SH-SY5Y cells; qPCR
  CAMK2G expression: no significant effect on CAMK2G expression
  intracellular TH transcription level: decrease of intracellular TH transcription level
SH-SY5Y cells; western blot
  phosphorylation levels of other members of the CaMKII family: may lead to increased phosphorylation levels of other members of the CaMKII family
  total protein level and pTH level of CAMK2γ: reduces the total protein level and pTH level of CAMK2γ

## Cc1c(Cl)cccc1S(=O)(=O)Nc1nc(NCCc2ccccc2)nc2c1CN(Cc1ccccc1)CC2 [CaMKII-IN1]
[2]
  release of MPO, elastase and PAD4: inhibits the release of MPO, elastase and PAD4

## Cc1ccc(OCC(O)C(C)NC(C)C)c2c1CCC2 (stereo not drawn) [ICI, ICI 118551]
Jurkat T cells
  activation of ERK and JNK: does not affect the activation
  p38 phosphorylation: inhibited
Jurkat cells
  production of T-cell proinflammatory cytokines IL-17A, TNF-α and IL-22: reduces the production of the T-cell proinflammatory cytokines
[3]
  activation of p38 in IMQ-induced skin: showed inhibitory effect
  IMQ-induced psoriasis-like phenotype (dorsal skin thickness, erythema, scaling): psoriasis phenotype of mice injected with ICI is reduced
  proportion of IL-17A+ γδ T cells (γδ T-17 cells) in mouse skin: reduces a proportion of skin γδ T-17 cells

## CC(C)Cn1cnc2c(N)nc3ccccc3c21 [IMQ, imiquimod]
[3]; IMQ treatment
  p38 phosphorylation in mouse skin: p38 phosphorylation is activated by IMQ
  proportion of β2-AR+ T cells in mouse skin: increases a proportion of β2-AR+ T cells in mouse skin
[3]; IMQ treatment, western blot
  TH phosphorylation in mouse skin: significant upregulation of TH phosphorylation

## COc1ccc(S(=O)(=O)N(CCO)c2ccccc2CN(C)C/C=C/c2ccc(Cl)cc2)cc1 [KN93]
[2]
  release of MPO, elastase and PAD4: inhibits the release of MPO, elastase and PAD4

## NC[C@H](O)c1ccc(O)c(O)c1 [NE, norepinephrine]
[4]
  difference in skin thickness between WT and Camk2g-/- mice: disappeared
[3]; NE administration, IMQ-induced Camk2g-/- mice
  IL-17A+ γδ T cells in CAMK2G-deleted mice: counteracts the decrease of IL-17A+ γδ T cells caused by CAMK2G deletion
[3]; NE injection, compared to IMQ-treated WT mice
  p38 phosphorylation in skin of Camk2g-/- mice: increases and restores p38 phosphorylation
[3]
  IMQ-induced psoriasis-like phenotype (dorsal skin thickness, erythema, scaling): aggravates the IMQ-induced psoriasis-like phenotype
  proportion of IL-17A+ γδ T cells (γδ T-17 cells) in mouse skin: increases a proportion of IL-17A+ γδ T cells in mouse skin

## OCc1cc(C(O)CNCCCCCCOCCCCc2ccccc2)ccc1O (stereo not drawn) [SAL, salmeterol xinafoate]
Jurkat T cells
  p38 phosphorylation: significantly increased
Jurkat cells
  production of T-cell proinflammatory cytokines IL-17A, TNF-α and IL-22: increase the production of T-cell proinflammatory cytokines IL-17A, TNF-α and IL-22
[5]
  ability of αβ T cells to produce IL-17: no effect
  psoriasis phenotype and inflammatory infiltration: promotion of psoriasis phenotype and inflammatory infiltration by SAL is counteracted by the lack of γδ T cells
[3]
  activation of p38 in IMQ-induced skin: enhanced the activation of p38
  IMQ-induced psoriasis-like phenotype (dorsal skin thickness, erythema, scaling): psoriasis phenotype of mice injected with SAL increased
  proportion of IL-17A+ γδ T cells (γδ T-17 cells) in mouse skin: promotes IL-17A production by γδ T cells
